Measured values: US20060276440A1, “Treatment of inflammatory disorders” (priority 2005, published 2006)
Where two headings read alike, the source gives them in different places.

Assays:
NF-κB = NF-κB reporter activity in transfected SW1353 cells; type: cell-based, human; details: 2 hrs pretreatment prior to IL-1/OSM, FIG. 14D
Method: SW1353 cells were plated at 100,000 in 24-well plates and cultured overnight in 10% FCS-DMEM/F-12. The following day, cells were transfected with 0.3 ug total DNA (pNF-kB-Luc reporter plasmid, BD biosciences San Jose, Calif.) using Lipofectamine™ 2000 (Invitrogen), according to the manufacturer's instructions. After overnight incubation, cells were washed in F12 media, pretreated with CA4 for 2 hrs, and then activated with IL-1/OSM (6 hrs) before measuring reporter activity.
The cellular and molecular mechanisms by which CA4 repressed pro-MMP-13 production, using SW1353 as the model system were investigated. […] The pathways that mediate OSM and IL-1 signal transduction were then examined. Using inhibitors that target key components of the pathways, it was shown that JAK/STAT, p38, JNK, and NF-κB pathways were important for OSM/IL-1-stimulated pro-MMP-13 production (FIG. 13B-E), but not ERK or Cox1/2 pathways (data not shown). These pathways were then examined to ascertain if activities of key components of these pathways were affected by CA4. […] Cells were pretreated with CA4 (20 nM) for 2 hrs and then activated with IL-1/OSM for 15 minutes. JNK (pT183/pY185), and ERK1/2 (pT202/pY204) phosphorylation was also not affected by CA4 (data not shown). […] Cells were pre-treated with CA4 or kamebakaurin (KA), for 2 hrs prior to IL-1/OSM activation. […]

[1] = test system: AP-1 (c-fos, c-Jun) and Runx2; experiment: mRNA of transcriptional factors AP-1 (c-fos, c-Jun) and Runx2 by Taqman in SW1353 cells; type: cell-based, human; details: 20 nM; OSM/IL-1-stimulated or unstimulated SW1353; 2 hr or 14 hr
Method: (§1) Total RNA was isolated using RNAzol™ B (TEL-TEST Inc., Friendswood, Tex.). SuperScript™ first-strand synthesis system (Invitrogen) was used for cDNA generation. All oligonucleotide primers and fluorescent-labeled TaqMan probes were from Applied Biosystems (Foster City, Calif.). Relative quantization of gene expression was performed using the MX3000p real-time PCR instrument (Stratagene, La Jolla, Calif.). PCR reactions for all samples were performed in triplicates using 50 ng of cDNA. To compensate for the variation in the total cDNA, all readouts were normalized to an endogenous control (18S ribosomal RNA). Thermocycler conditions comprised an initial holding at 50° C. for 2 min, then 95° C. for 10 min, followed by a 2-step TaqMan PCR program consisting of 95° C. for 15 seconds, and 60° C. for 60 seconds for 40 cycles. The relative changes in gene expression were quantified as described in Applied Biosystems User Bulletin NO. 2 (P/N 4303859).
(§2) The cellular and molecular mechanisms by which CA4 repressed pro-MMP-13 production, using SW1353 as the model system were investigated. […] The pathways that mediate OSM and IL-1 signal transduction were then examined. […]

CD3 = experiment: GFP-reporter Jurkat T-cell line, anti-CD3 antibody-upregulated reporter; type: cell-based; details: at 20 nM; data not shown
MMP-13 = experiment: IL-1/OSM-stimulated pro-MMP-13 production in SW-1353 cells (ELISA); type: cell-based, human; details: Homo sapiens
Excerpt: To test the compounds identified in the preliminary reporter (luciferase) activity […]® line 4A1 screen for inhibition of OSM signaling in a more physiologically relevant environment, a human cell line involved in an inflammatory disease was adapted. The human cartilage cell line SW-1353 was selected.
In the human cartilage cell line SW-1353, while IL-1 is believed to activate expression of collagenases to a small degree and OSM is believed to have no effect on collagenase expression, a combination of IL-1 and OSM is believed to lead to a synergistic activation of collagenases to much higher levels (S. Cowell et al., Biochem J 331 (Pt 2), 453 (Apr. 15, 1998). Regulation of MMP-13 in SW-1353 cells is, therefore, believed to provide a biomarker which can be used to monitor IL-1/OSM-mediated signal transduction events in secondary assays.
The same supernatants of culture media used in the primary screen were assayed for IL-1/OSM-stimulated pro-MMP-13 production and MMP-2 production by enzyme-linked immunosorbent assay (ELISA).
For matrix metalloproteinase (MMP) measures, SW1353 cells were grown to confluence in 24 well plates, washed in DMEM (with Ham's F12) and placed in 500 ul of serum free DMEM/F-12 with 0.2% lactalbumin hydrosylate with and without OsM/IL-1. After 24 hrs, supernatants were collected and the amounts of proMMP13, totalMMP2, and proMMP1 were measured using Quantikine® ELISA kit for human MMPs (R & D systems, Minneapolis, Minn.). All MMP measures were normalized to viable cell numbers based on a tetrazolium (MTS) colorimetric measure (Promega, Madison, Wis.).

p38, JNK, ERK1/2 = p38, JNK, ERK1/2 phosphorylation in SW1353 cells (FACS, immunostaining); type: cell-based, human
Method: SW1353 cells were seeded and treated as described above. For the flow cytometric analysis of intracellular phopho-proteins, trypsinized SW1353 cells were fixed in 1.5% formaldehyde at room temperature (RT), and permeabilized in ice cold methanol for minimum of 10 minutes. After 2× wash in wash buffer (D-PBS, with 1% FBS), cells were stained with phospho-specific antibodies (5 ug/ml final) for 20 minutes, washed 2× in wash buffer, followed by 20 minutes incubation with phycoerythrin-conjugated anti-mouse IgG (10 ug/ml final). Following 2× wash in wash buffer, cells were analyzed by flow cytometry.
For immunohistochemistry of intracellular phospho-proteins, fixation and permeabilization conditions were identical to the ones used for flow cytometric analysis. For the visualization of the phosphor-specific proteins, ImmPRESS Universal Antibody kit (Vector Laboratories, Burlingame, Calif.) was used.
The cellular and molecular mechanisms by which CA4 repressed pro-MMP-13 production, using SW1353 as the model system were investigated. […] The pathways that mediate OSM and IL-1 signal transduction were then examined. Using inhibitors that target key components of the pathways, it was shown that JAK/STAT, p38, JNK, and NF-κB pathways were important for OSM/IL-1-stimulated pro-MMP-13 production (FIG. 13B-E), but not ERK or Cox1/2 pathways (data not shown). […]

OSM signaling = experiment: OSM-responsive SW1353 Sentinel cell line luciferase reporter; type: cell-based, human; details: FIG. 12C, listed as CA4
Excerpt: Taken together, it appears that CA4 interferes as well with OSM signal transduction that led to the synergistic upregulation of pro-MMP-13 by OSM/IL-1 in SW1353 cells.

MMP-13 mRNA = MMP-13 mRNA by Taqman in OSM/IL-1-stimulated SW1353 cells; type: cell-based, human; details: FIG. 13A
Method: as §1, §2

Compound: COc1ccc(/C=C\c2cc(OC)c(OC)c(OC)c2)cc1O [Combretastatin A4 (1), (Z)-5-(3,4,5-trimethoxystyryl)-2-methoxyphenol]
- NF-κB reporter activity (NF-κB): did not inhibit
- messenger RNA levels of AP-1 (c-fos, c-Jun) and Runx2 [1]: none of these factors as detected by Taqman were significantly altered
- effect on CD3-mediated increase of GFP fluorescence (CD3): did not have any effect
- IC50 (MMP-13; SW1353, SW-1353, IL-1/OSM-stimulated, secondary screen (Example 2), read-out: IC50, inhibition of MMP-13 (pro-MMP-13) production): 2 nM
- IC50 (MMP-13; SW1353 cells, mean (Examples 8, 10), read-out: IC50 values by pro-MMP-13 (OSM/IL-1-mediated production)): 5.6 ± 1.3 nM
- p38 or JNK phosphorylation (p38, JNK, ERK1/2; 20 nM, FACS or immunostaining): Nor was p38 or JNK phosphorylation affected
- JNK (pT183/pY185) and ERK1/2 (pT202/pY204) phosphorylation (p38, JNK, ERK1/2; CA4 (20 nM) 2 hrs pretreatment, IL-1/OSM 15 minutes, data not shown): not affected
- OSM-induced reporter luciferase activity (OSM signaling): dose-dependently inhibited the reporter luciferase activity
- OSM/IL-1-induced MMP-13 mRNA levels (MMP-13 mRNA): represses OSM/IL-1-induced MMP-13 mRNA levels
